Data taken from ChEMBL document CHEMBL1157539, “Thousands of chemical starting points for antimalarial lead identification” (Nature, 2010).

The compounds below were run on Plasmodium falciparum (assay: GSK_TCMDC: Inhibition of Plasmodium falciparum 3D7 in whole erythrocytes, using parasite LDH activity as an index of growth.). Conditions: Plasmodium falciparum, 3D7.
Type: functional, organism-based

| SMILES | XC50 |
| --- | --- |
| O=[N+]([O-])c1cccc(/C=N/Nc2ccnc3cc(F)ccc23)c1 | 910 nM |
| CC(C)(C)N1CCC(N(Cc2ccc(-c3ccc(C(F)(F)F)cc3)cc2)C(=O)Cn2c(CCc3cccc(F)c3F)cc(=O)c3cccnc32)CC1 | 705 nM |
| O=C(Cn1c(CCc2cccc(F)c2F)nc(=O)c2ccccc21)N(CCN1CCCCC1)Cc1ccc(-c2ccc(C(F)(F)F)cc2)cc1 | 757 nM |
| COC(=O)/C=C/c1ccc(CCC(C)NCC(O)c2cccc(Cl)c2)cc1 (stereo not drawn) | 935 nM |
| CC1(C)[C@H]2CC[C@@H](CNc3nc(NCCc4c[nH]cn4)nc(Nc4ccc5c(c4)OCO5)n3)[C@@H]1C2 | 537 nM |
| CSc1ccc(NC(=O)Nc2cc(C)nc3ccccc23)cc1 | 713 nM |
| O=C(CSc1nc(-c2ccccc2Cl)ns1)Nc1cccc(Cl)c1 | 787 nM |
| CCn1c(-c2nonc2N)nc2cnc(Oc3cccc(NC(=O)c4ccc(OCCN5CCCCC5)cc4)c3)cc21 | 1060 nM |
| CC(C)CNCc1cccc(-c2ccc(CNc3ccc4ncccc4c3)cc2)c1 | 1060 nM |
| CS(=O)(=O)CCNCc1nc(-c2ccc3ncnc(Nc4ccc(OCc5cccc(F)c5)c(Cl)c4)c3c2)cs1 | 771 nM |
| O=C1OC(c2cc3ccccc3n2S(=O)(=O)c2ccccc2)(c2cc3ccccc3n2S(=O)(=O)c2ccccc2)c2ccccc21 | 846 nM |
| COCCNCc1ncsc1-c1ccc2c(Nc3cc(O)c(Cl)cc3F)ccnc2c1 | 547 nM |
| CN1CCCC1CCNCc1cccc(-c2cnc(N(C)C3CCCCC3)nc2)c1 (stereo not drawn) | 853 nM |
| CN1CCCN(Cc2cccc(-c3ccc(NC(=O)c4cccc(Cl)c4)cc3)c2)CC1 | 927 nM |
| CCNc1cc(C)nc(Nc2ccc(NC(=O)c3ccccc3Br)cc2)n1 | 742 nM |
| CCCCCN1CCC(NC(=O)c2ccc(C(=O)Nc3ccc(C(C)C)cc3)cc2)CC1 | 845 nM |
| Cc1c(Cc2ccc(F)cc2)c(Cl)nc2nc(N)nc(N)c12 | 861 nM |
| CC[C@H]1CN2CC[C@H]1C[C@H]2[C@H](O)c1cc(/C=C/c2ccccc2)nc2ccc(OC)cc12 | 42.7 nM |
| CCCOc1cc(OCCC)cc(-c2ccc(C(=O)Nc3ccc4ccc(C)nc4c3)c(=O)[nH]2)c1 | 750 nM |
| NCc1ccc(-c2ccccc2CN(C(=O)Nc2ccccc2)C2CCN(Cc3ccccc3)CC2)cc1 | 880 nM |
| COC(=O)[C@@H](NC(=O)[C@@H](Nc1ccc(C#N)c2ccccc12)C(C)(C)C)c1ccc(O)cc1 | 777 nM |
| COc1ccc(NC(=O)/C=C/c2ccccc2Cl)cc1OCCN1CCC(N2CCCC2)CC1 | 786 nM |
| CCc1ccc(OCCCON2C(=N)N=C(N)NC2(C)C)cc1 | 3.2 nM |
| S=C(NN=Cc1ccccn1)NC1CC2C=CC1C2 (stereo not drawn) | 721 nM |
| CN(C)c1ccc(CN2CCC(NC(=O)c3ccc(-c4ccccc4Cl)s3)CC2)cc1 | 899 nM |

| SMILES | XC50 |
| --- | --- |
| CCCCCCCc1c2c(C)c(C(=O)OCC)nc-2cc2n1CC(C)=C2C | 1140 nM |
| CCCCOc1ccc(N2C(N)=NC(N)=NC2(C)C)cc1 | 215 nM |
| CCC(CC)CN1C(=O)C(C)(c2ccccc2)N=C1N (stereo not drawn) | 1060 nM |
| CCCCC#Cc1cnc2nc(N)[nH]c(=O)c2n1 | 646 nM |
| CCc1cc(NC2CCN(C)CC2)nc(Nc2ccc(C)cc2)n1 | 694 nM |
| CC(C)Oc1cc2c(cc1NS(=O)(=O)c1ccc(-c3ccc(Cl)cc3)cc1F)CCN(C)CC2 | 919 nM |
| O=C(Nc1cccc(CN2CCCN(CC3CC3)CC2)c1)c1ccc(Cl)c(Cl)c1 | 1030 nM |
| O=C(c1cc(C(=O)Nc2ccc(F)cc2)c(=O)n(-c2ccc(F)cc2)c1)c1cc(Cl)ccc1O | 219 nM |
| Nc1cnc(C#Cc2cc3ncnc(N(CCN4CCOCC4)c4ccc(OCc5cccc(F)c5)c(Cl)c4)c3s2)cn1 | 1050 nM |
| Cc1cc(N[C@@H](Cc2ccccc2)C(=O)NC2CCCC2)nc(NCCOc2ccccc2)n1 | 1110 nM |
| O=C(NCCN1CCCC1)c1cccc(-c2ccc(-c3nc4cc(F)ccc4[nH]3)s2)c1 | 1530 nM |
| Cc1[nH]c2ccc([N+](=O)[O-])cc2c1C1=CCN(C)CC1 | 335 nM |
| Cc1cc2cc(NC(=O)Nc3ccnc4ccccc34)ccc2n1C | 1090 nM |
| Cc1ccc(Nc2nc3cc(N(C)c4ccnc(Nc5cccc(CS(C)(=O)=O)c5)n4)ccc3o2)cc1 | 973 nM |
| O=C(Nc1ccc(Cl)cc1)Nc1ccc2nonc2c1 | 1100 nM |
| CC(C)Nc1cc(C(=O)N[C@@H](Cc2ccccc2)[C@H](O)CNC2CCOCC2)c(F)c(N2CCCCS2(=O)=O)c1 | 183 nM |
| Cn1c(NCc2cc(F)cc3c2OCOC3)nc2cc(Nc3ccnc(Nc4cccc(CS(C)(=O)=O)c4)n3)ccc21 | 149 nM |
| O=C(c1cc2ccccc2o1)N1CCc2cc3nccc(N4CCN5CCC[C@H]5C4)c3cc21 | 812 nM |
| Fc1ccc(C(OCC2CCCN(Cc3cccc4cccnc34)C2)c2ccc(F)cc2)cc1 (stereo not drawn) | 703 nM |
| COc1ccc(C(=O)N2CCC(C(=O)NC(C)c3ccc(-n4ccnc4)cc3)CC2)c2ccccc12 (stereo not drawn) | 1130 nM |
| CC(=O)Oc1c(C2CCN(CCCCNC(=O)c3ccc(NC(=O)c4ccc(Cl)cc4)cc3)CC2)ccc2ccccc12 | 881 nM |
| CCN(Cc1ccccc1)CC(O)c1ccc(Cl)c(Cl)c1 (stereo not drawn) | 182 nM |
| CCCCCCCCCCNCC(O)c1ccc(O)c(C(=O)OC)c1 (stereo not drawn) | 717 nM |
| Cc1nc2ccc(-c3ccc(OC(F)(F)F)cc3)cc2c(O)c1C#N | 20.7 nM |
| CCNCCCC(C)Nc1ccnc2cc(Cl)ccc12 (stereo not drawn) | 200 nM |

| SMILES | XC50 |
| --- | --- |
| CN(C)CCOc1cc(NC(=O)/C=C/c2cccc3ccccc23)ccc1I | 1260 nM |
| CCOc1c(Br)cc(Br)cc1CNCCCCNc1nc2ccccc2[nH]1 | 394 nM |
| O=[N+]([O-])c1cc(/C=N/Nc2nc3ccccc3[nH]2)ccc1O | 954 nM |
| CCCCN1CCN(c2cc(NS(=O)(=O)c3cccc(C(=O)Nc4ccc(C(F)(F)F)cc4)c3)ccc2OC)CC1 | 685 nM |
| Cc1cc(N2CCCC2)nc(Nc2ccc(NC(=O)c3ccccc3F)cc2)n1 | 922 nM |
| CN1CCN(c2ccc(-c3cccc(NC(=O)c4cccc(Cl)c4)c3)nn2)CC1 | 579 nM |
| Cc1nc(N/C(N)=N/C(=O)NC2CCCCC2)nc2ccccc12 | 791 nM |
| CN1CCC(Oc2ccc(NC(=O)c3ccc4c(=O)n(Cc5ccccc5)cnc4c3)cc2Cl)CC1 | 954 nM |
| COc1ccccc1C1CCN(C2CCC(NC(=O)c3cc(-c4ccc(Cl)cc4)cs3)CC2)CC1 (stereo not drawn) | 383 nM |
| O=C(c1ccc(O)c(-c2cc(Cl)cc(Cl)c2)c1)N(CCO)CCO | 908 nM |
| CN1CCN(Cc2nc(-c3ccc4c(Nc5ccc(Oc6ccccc6)cc5)ccnc4c3)cs2)CC1 | 310 nM |
| COc1ccc2c(NN=Cc3cccc(Cl)c3)ccnc2c1 | 716 nM |
| Cc1cc(N2CCN(C(=O)OC(C)(C)C)CC2)ccc1N | 865 nM |
| Cc1sc(N2CCN(C)CC2)nc1C(=O)Nc1ccc(F)cc1C(F)(F)F | 1070 nM |
| CCc1ccc(C2CCN(CCCCNC(=O)c3ccc(NC(=O)c4ccc(Cl)cc4)cc3)CC2)c(OCCO)c1 | 1390 nM |
| CC(C)OC(=O)c1ccc(NC(=O)N[C@@H](Cc2ccc(O)cc2)C(=O)NC2CC3CCC(C2)N3Cc2ccccc2)cc1 (stereo partly drawn) | 1080 nM |
| O=C(Nc1ccc2c(c1)CNCC2)c1ccc(-c2ccc(Cl)cc2)cc1 | 662 nM |
| CCNc1cc(C)nc(Nc2ccc(C)cc2)n1 | 730 nM |
| COc1ccc(CCON2C(=N)N=C(N)NC2(C)C)cc1OC | 5.91 nM |
| OC1(C(F)(F)F)CC(c2ccccc2)=NN1c1nncc(-c2ccccc2)n1 (stereo not drawn) | 735 nM |
| Clc1ccc(Cc2nc3ccccc3[nH]2)cc1Cl | 246 nM |
| CN(CCc1ccccn1)c1cccc2c1nc(-c1cccnc1)n2CCNCc1ccccc1 | 1060 nM |
| CN(Cc1ccccc1)C1CCCN(c2cc(NC(=O)c3cccs3)ccn2)C1 (stereo not drawn) | 1130 nM |
| CCCCN(C)CC#Cc1ccc2[nH]c(C)c(Cl)c(=O)c2c1 | 130 nM |
| COCCOc1ccc(Nc2nccc(-c3c(-c4cccc(NC(=O)c5c(F)cccc5F)c4)nn4ccccc34)n2)cc1Cl | 356 nM |

| SMILES | XC50 |
| --- | --- |
| O=C(/C=C/c1ccc(Cl)c(Cl)c1)NC1CCN(CCCNC(=O)c2cccc(Cl)c2)CC1 | 659 nM |
| CCCCCC(NCCCC)c1ccc(OCCOc2ccc(C(CCCCC)NCCCC)cc2)cc1 (stereo not drawn) | 1240 nM |
| CCCC[C@H](NC(=O)O[C@H](COc1ccc(OCc2ccccc2)cc1)C(C)(C)C)C(=O)C(=O)Nc1cc[nH]n1 | 991 nM |
| CC(C)CNCc1cccc(-c2cccc(CNCCCN3CCN(C)CC3)c2)c1 | 1180 nM |
| CC(=O)C1(c2ccccc2)CCN(CCC(NC(=O)c2cc(C(F)(F)F)cc(C(F)(F)F)c2)c2ccc(Cl)c(Cl)c2)CC1 (stereo not drawn) | 1190 nM |
| COc1ccc2[nH]c(C)cc(=NN=Cc3ccccc3)c2c1 | 1030 nM |
| O=C(Nc1ccccc1Cc1ccccc1)c1ccccc1C(F)(F)F | 782 nM |
| CN1CCCc2ccc(NC(=O)Nc3ccc(-c4ccccc4)cc3)cc2C1 | 380 nM |
| CC(C)(C)c1ccc(S(=O)(=O)Nc2cc(Cl)ccc2Cn2ccc(N3CCNCC3)nc2=O)cc1 | 827 nM |
| CC1(C)N=C(N)N=C(NOCCCCCCONC2=NC(N)=NC(C)(C)N2)N1 | 33.3 nM |
| CNC(=O)c1ccccc1Nc1nc(Nc2ccc(C(=O)O)cc2)ncc1Cl | 950 nM |
| C=C[C@]1(C)C[C@@H](OC(=O)CNC[C@@H](O)CN2C[C@H](c3ccnc4ccc(OC)nc34)OC2=O)[C@@]2(C)[C@@H]3C(=O)CC[C@@]3(CC[C@@H]2C)[C@@H](C)[C@@H]1O | 948 nM |
| Cc1n[nH]c2cc(Nc3nccc(Nc4ccc(Oc5ccccc5)cc4)n3)ccc12 | 600 nM |
| CN1CCN(CC2(Nc3nccc(NCCc4cn(C)c5ccccc45)n3)CCCCC2)CC1 | 1810 nM |
| CCCCN(CCCC)CC(O)c1cc(-c2ccc(Cl)cc2)nc2c(Cl)cc(Cl)cc12 (stereo not drawn) | 26.3 nM |
| CC(C)Cn1c(Sc2ccc(C#N)c([N+](=O)[O-])c2)nnc1-c1cccc(Cl)c1 | 301 nM |
| O=C(C=Cc1ccc(Cl)c(Cl)c1)NCCCCCN1CCCC(CCCNS(=O)(=O)c2ccc(Br)cc2)C1 (stereo not drawn) | 955 nM |
| CCCCCn1c(Sc2ccc(C#N)c([N+](=O)[O-])c2)nnc1-c1ccc(Cl)cc1 | 1080 nM |
| COc1ccc(-c2ccc3c(-c4ccc(F)cc4)cnc(N)c3c2)cn1 | 388 nM |
| CCC(C(C)C)n1ccc2c3c(N)nc(N)nc3ccc21 (stereo not drawn) | 3.2 nM |
| Cc1ccc2c(c1)c(C1CCN(C(=O)c3ccc([N+](=O)[O-])o3)CC1)cn2C | 746 nM |
| CCn1ccc2c(N3CCCS3(=O)=O)cc(C(=O)N[C@@H](Cc3ccccc3)[C@H](O)CNC3CCCCC3)cc21 | 137 nM |
| O=C(O[C@H]1CN[C@H](C#Cc2cc3c(Nc4ccc(OCc5cccc(F)c5)c(Cl)c4)ncnc3s2)C1)N1CCCC1 | 707 nM |
